According to patent publication US8343983B2, “Substituted pyrazolo-pyrimidine compounds” (ArQule, Inc., priority 2009, dated 2013):
Read-outs that look alike come from different tables or passages of the source.

Test system: cancer cells
Test: MTS assay: inhibition of cell growth (formazan absorbance at 492 nm after 72 hours with test compound)
Format: cell-based
Settings: inhibition class
Summary of the method: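 DMEM with 1% FBS; cells seeded at 3000/well and grown 18 h at 37 °C, then exposed to compound for 72 h and to MTS/PMS for 4 h. IC50 is the concentration giving a 50% absorbance drop; grades are % inhibition bands.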

[1] = Homo sapiens, DLD-1 cells, read-out: DLD-1, MTS 72 hours at 10 uM
[2] = Homo sapiens, KATO III cells, read-out: KATO III, MTS 72 hours at 10 uM
[3] = Homo sapiens, MDA-MB-231 cells, read-out: MDA-MB-231, MTS 72 hours at 10 uM
[4] = Homo sapiens, NCI-H1299 cells, read-out: NCI-H1299, MTS 72 hours at 10 uM
[5] = Homo sapiens, PC-3 cells, read-out: PC-3, MTS 72 hours at 10 uM
[6] = PACA-2 cells, read-out: PACA-2, MTS 72 hours at 10 uM

COc1ccc(CCNc2nc3c4c(n[nH]c4n2)CCN3Cc2ccccc2)cc1 [Compound 32, 6-benzyl-N-[2-(4-methoxyphenyl)ethyl]-2,6,7,8-tetrahydro-1,2,3,5,6-pentaazaacenaphthylen-4-amine]
inhibition at 10 µM [1]: > 79% | inhibition at 10 µM [2]: > 79% | inhibition at 10 µM [3]: > 79% | inhibition at 10 µM [4]: > 79% | inhibition at 10 µM [5]: > 79% | inhibition at 10 µM [6]: > 79%

CN1CCN(c2nc3c4c(n[nH]c4n2)CCN3Cc2ccccc2)CC1 [Compound 80, 6-benzyl-4-(4-methylpiperazin-1-yl)-2,6,7,8-tetrahydro-1,2,3,5,6-pentaazaacenaphthylene]
inhibition at 10 µM [1]: < 50% | inhibition at 10 µM [2]: < 50% | inhibition at 10 µM [3]: < 50% | inhibition at 10 µM [4]: < 50% | inhibition at 10 µM [5]: < 50% | inhibition at 10 µM [6]: < 50%

COc1ccc(CN2CCCc3n[nH]c4nc(N5CCOCC5)nc2c34)cc1 [Compound 242, 6-(4-methoxybenzyl)-4-morpholin-4-yl-6,7,8,9-tetrahydro-2H-1,2,3,5,6-pentaazabenzo[cd]azulene]
inhibition at 10 µM [1]: > 79% | inhibition at 10 µM [2]: < 50% | inhibition at 10 µM [3]: < 50% | inhibition at 10 µM [4]: < 50% | inhibition at 10 µM [5]: < 50% | inhibition at 10 µM [6]: 50 to 79%

COC[C@H](C)Nc1nc2c3c(n[nH]c3n1)CCN2Cc1ccccc1 [Compound 18, 6-benzyl-N-[(1S)-2-methoxy-1-methylethyl]-2,6,7,8-tetrahydro-1,2,3,5,6-pentaazaacenaphthylen-4-amine]
inhibition at 10 µM [1]: < 50% | inhibition at 10 µM [2]: < 50% | inhibition at 10 µM [3]: < 50% | inhibition at 10 µM [4]: < 50% | inhibition at 10 µM [5]: < 50% | inhibition at 10 µM [6]: < 50%

c1ccc(CCNc2nc3c4c(n[nH]c4n2)CCN3)cc1 [Compound 128, N-(2-phenylethyl)-2,6,7,8-tetrahydro-1,2,3,5,6-pentaazaacenaphthylen-4-amine]
inhibition at 10 µM [1]: > 79% | inhibition at 10 µM [2]: > 79% | inhibition at 10 µM [3]: > 79% | inhibition at 10 µM [4]: > 79% | inhibition at 10 µM [5]: > 79% | inhibition at 10 µM [6]: > 79%

C1Cc2n[nH]c3nc(N4CCOCC4)nc(c23)N1 [Compound 125, 4-morpholin-4-yl-2,6,7,8-tetrahydro-1,2,3,5,6-pentaazaacenaphthylene]
inhibition at 10 µM [1]: < 50% | inhibition at 10 µM [2]: < 50% | inhibition at 10 µM [3]: < 50% | inhibition at 10 µM [4]: < 50% | inhibition at 10 µM [5]: < 50% | inhibition at 10 µM [6]: < 50%

COc1ccc(CN2CCCc3n[nH]c4nc(NCCc5c[nH]c6ccc(Cl)cc56)nc2c34)cc1 [Compound 252, N-[2-(5-chloro-1H-indol-3-yl)ethyl]-6-(4-methoxybenzyl)-6,7,8,9-tetrahydro-2H-1,2,3,5,6-pentaazabenzo[cd]azulen-4-amine]
inhibition at 10 µM [1]: 50 to 79% | inhibition at 10 µM [2]: < 50% | inhibition at 10 µM [3]: < 50% | inhibition at 10 µM [4]: < 50% | inhibition at 10 µM [5]: < 50% | inhibition at 10 µM [6]: < 50%

Cn1c(CNc2nc3c4c(n[nH]c4n2)CCN3Cc2ccccc2)nc2ccccc21 [Compound 21, 6-benzyl-N-[(1-methyl-1H-benzimidazol-2-yl)methyl]-2,6,7,8-tetrahydro-1,2,3,5,6-pentaazaacenaphthylen-4-amine]
inhibition at 10 µM [1]: < 50% | inhibition at 10 µM [2]: 50 to 79% | inhibition at 10 µM [3]: < 50% | inhibition at 10 µM [4]: < 50% | inhibition at 10 µM [5]: < 50% | inhibition at 10 µM [6]: < 50%

c1ccc(CN2CCN(c3nc4c5c(n[nH]c5n3)CCN4c3ccccc3)CC2)cc1 [Compound 217, 4-(4-benzylpiperazin-1-yl)-6-phenyl-2,6,7,8-tetrahydro-1,2,3,5,6-pentaazaacenaphthylene]
inhibition at 10 µM [1]: < 50% | inhibition at 10 µM [2]: < 50% | inhibition at 10 µM [3]: < 50% | inhibition at 10 µM [4]: < 50% | inhibition at 10 µM [5]: < 50% | inhibition at 10 µM [6]: < 50%

CS(=O)(=O)c1nc2c3c(n[nH]c3n1)CCN2Cc1ccccc1 [Compound 2, 6-benzyl-4-(methylsulfonyl)-2,6,7,8-tetrahydro-1,2,3,5,6-pentaazaacenaphthylene]
inhibition at 10 µM [1]: < 50% | inhibition at 10 µM [2]: < 50% | inhibition at 10 µM [3]: < 50% | inhibition at 10 µM [4]: < 50% | inhibition at 10 µM [5]: < 50% | inhibition at 10 µM [6]: < 50%

COc1cccc(CCNc2nc3c4c(n[nH]c4n2)CCN3Cc2ccccc2)c1OC [Compound 39, 6-benzyl-N-[2-(2,3-dimethoxyphenyl)ethyl]-2,6,7,8-tetrahydro-1,2,3,5,6-pentaazaacenaphthylen-4-amine]
inhibition at 10 µM [1]: < 50% | inhibition at 10 µM [2]: < 50% | inhibition at 10 µM [3]: < 50% | inhibition at 10 µM [4]: < 50% | inhibition at 10 µM [5]: < 50% | inhibition at 10 µM [6]: < 50%

COc1cc2c(cc1OC)CN(c1nc3c4c(n[nH]c4n1)CCN3Cc1ccccc1)CC2 [Compound 58, 6-benzyl-4-(6,7-dimethoxy-3,4-dihydroisoquinolin-2(1H)-yl)-2,6,7,8-tetrahydro-1,2,3,5,6-pentaazaacenaphthylene]
inhibition at 10 µM [1]: 50 to 79% | inhibition at 10 µM [2]: < 50% | inhibition at 10 µM [3]: 50 to 79% | inhibition at 10 µM [4]: 50 to 79% | inhibition at 10 µM [5]: > 79% | inhibition at 10 µM [6]: < 50%

COc1cccc(CCNc2nc3c4c(n[nH]c4n2)C(C(=O)NCc2ccccc2)CN3Cc2ccccc2)c1 (stereo not drawn) [Compound 224, N,6-dibenzyl-4-{[2-(3-methoxyphenyl)ethyl]amino}-2,6,7,8-tetrahydro-1,2,3,5,6-pentaazaacenaphthylene-8-carboxamide]
inhibition at 10 µM [1]: < 50% | inhibition at 10 µM [2]: < 50% | inhibition at 10 µM [3]: < 50% | inhibition at 10 µM [4]: < 50% | inhibition at 10 µM [5]: < 50% | inhibition at 10 µM [6]: < 50%

c1cncc(CNc2nc3c4c(n[nH]c4n2)CCN3)c1 [Compound 121, N-(pyridin-3-ylmethyl)-2,6,7,8-tetrahydro-1,2,3,5,6-pentaazaacenaphthylen-4-amine]
inhibition at 10 µM [1]: < 50% | inhibition at 10 µM [2]: < 50% | inhibition at 10 µM [3]: < 50% | inhibition at 10 µM [4]: < 50% | inhibition at 10 µM [5]: < 50% | inhibition at 10 µM [6]: < 50%

Clc1cccc(Oc2ccccc2)c1CNc1nc2c3c(n[nH]c3n1)CCN2Cc1ccccc1 [Compound 16, 6-benzyl-N-(2-chloro-6-phenoxybenzyl)-2,6,7,8-tetrahydro-1,2,3,5,6-pentaazaacenaphthylen-4-amine]
inhibition at 10 µM [1]: < 50% | inhibition at 10 µM [2]: < 50% | inhibition at 10 µM [3]: < 50% | inhibition at 10 µM [4]: 50 to 79% | inhibition at 10 µM [5]: 50 to 79% | inhibition at 10 µM [6]: < 50%

O=C(C1CN(Cc2ccccc2)c2nc(NCc3ccccc3)nc3[nH]nc1c23)N1CCOCC1 (stereo not drawn) [Compound 237, N,6-dibenzyl-8-(morpholin-4-ylcarbonyl)-2,6,7,8-tetrahydro-1,2,3,5,6-pentaazaacenaphthylen-4-amine]
inhibition at 10 µM [1]: < 50% | inhibition at 10 µM [2]: < 50% | inhibition at 10 µM [3]: < 50% | inhibition at 10 µM [4]: < 50% | inhibition at 10 µM [5]: < 50% | inhibition at 10 µM [6]: < 50%

COc1ccc(CN2CCc3n[nH]c4nc(NCc5cccnc5)nc2c34)cc1 [Compound 102, 6-(4-methoxybenzyl)-N-(pyridin-3-ylmethyl)-2,6,7,8-tetrahydro-1,2,3,5,6-pentaazaacenaphthylen-4-amine]
inhibition at 10 µM [1]: > 79% | inhibition at 10 µM [2]: > 79% | inhibition at 10 µM [3]: > 79% | inhibition at 10 µM [4]: > 79% | inhibition at 10 µM [5]: > 79% | inhibition at 10 µM [6]: > 79%
